In brackets after ≈: the same amount, converted by molar mass.
Assays:
E. coli 25922 = assay: MIC broth microdilution; type: cell-based; conditions: Escherichia coli, CAMHB, median of triplicates, read-out: MIC (μg/mL) E. coli 25922
Protocol: (§1) The antibacterial activity of the compounds was determined by measuring their minimum inhibitory concentration (MIC) values using the broth microdilution method according to the Clinical and Laboratory Standards Institute guidelines (CLSI). Briefly, a single colony from blood agar plates was inoculated into cation-adjusted Mueller-Hinton broth (CAMHB) and grown to OD600 = 0.5. Next, 10^6 CFU/mL were added to a 2-fold serial dilution series of test compounds and incubated at 37 °C, 600 rpm overnight (18–20 h for Gram-negative strains, 20–24 h for Gram-positive strains), after which the plates were visually inspected for bacterial growth. MICs are reported as the median of triplicates.

P. aeruginosa 27853 = assay: MIC broth microdilution; type: cell-based; conditions: Pseudomonas aeruginosa, clinical isolate, CAMHB, median of triplicates, read-out: MIC (μg/mL) P. aeruginosa 27853
Protocol: as §1

S. aureus USA 300 = assay: MIC broth microdilution; type: cell-based; conditions: Staphylococcus aureus, USA300; clinical isolate; CAMHB, median of triplicates; read-out: MIC (μg/mL) S. aureus USA 300
Protocol: as §1

E. coli BW25113 = assay: MIC broth microdilution; type: cell-based; conditions: Escherichia coli, CAMHB, median of triplicates, read-out: MIC (μg/mL) E. coli BW25113
Protocol: as §1

A. baumanni 9955 = assay: MIC broth microdilution; type: cell-based; conditions: Acinetobacter baumannii, clinical isolate, CAMHB, median of triplicates, read-out: MIC (μg/mL) A. baumanni 9955
Protocol: as §1

K. pneumoniae 13883 = assay: MIC broth microdilution; type: cell-based; conditions: Klebsiella pneumoniae, clinical isolate, CAMHB, median of triplicates, read-out: MIC (μg/mL) K. pneumoniae 13883
Protocol: as §1

E. coli TOP10F’ = assay: MIC broth microdilution; type: cell-based; conditions: Escherichia coli; screening strain; CAMHB, median of triplicates; read-out: MIC (μg/mL) E. coli TOP10F’
Protocol: as §1

E. coli TOP10F' = assay: Growth inhibition after 7 hours (EC80/EC50); conditions: Escherichia coli, 7 h; for EC50: read-out: EC50 TOP10F'; for IC80: read-out: EC80 TOP10F'
E. coli MC4100 = assay: Growth inhibition after 7 hours (EC80/EC50); conditions: Escherichia coli, MC4100, 7 h; for EC50: read-out: EC50 MC4100; for IC80: read-out: EC80 MC4100
[1] = tested on: Rcs cell envelope stress response in Escherichia coli; assay: Rcs stress reporter assay, HTS format, dose-response curves; type: cell-based; conditions: for Emax: read-out: Max. effect (%); for EC50: read-out: pEC50 (converted)
Protocol: We adapted the reporter assay based on the Rcs stress system for HTS in a screening program at the ELF as the first bacterial phenotypic screen used in this setting. , The assay was performed in a 1536-well format using 25 μM PMBN as a reference (set at 100% effect).
The ELF screened their extensive and diverse library consisting of >500,000 small molecules at a concentration of 10 μM. The assay window (S/B) and Z’ values remained stable (2.0–15.2 and 0.50–0.90, respectively) throughout the screening campaign. The detailed standard screening procedure of the ELF is outlined elsewhere. An overview of the selection process of the screening campaign performed here is outlined in Figure . Initially, 340 compounds with an effect ≥20% of the reference compound PMBN were considered biologically active. Usually, up to 1% of the input library is selected for confirmatory, dose–response, orthogonal and deselection assays. Because the number of biological actives identified in this assay was well below the 1% limit, no orthogonal assays were performed. Instead, all compounds were reordered and tested as dilution series in the Rcs assay to generate dose–response curves (DRCs). Each compound’s pEC50 (−log of EC50, defined as the concentration (mol/L) at which 50% effect is achieved) was determined, and compounds with a pEC50 ≥ 4.7 were selected for further analysis. Next, the compounds were subjected to a mammalian cell-based cytotoxicity assay to exclude toxic compounds that may have a generic effect on membrane integrity. Compounds that reduced mammalian cell viability by 50% were considered cytotoxic. The qualified hit list (QHL) was then generated following triaging based on LC-MS analysis and pEC50 values.
Overnight cultures (ONCs) were prepared by inoculating 5 mL medium from glycerol stocks and incubating the culture for 16–18 h. ONCs were then diluted to an OD600 of 0.05 and grown until an OD600 of 0.3–0.4 was reached.
Assay robustness was confirmed by testing its sensitivity to assay-interfering agents, including colored, aggregating and fluorescent compounds. […] For HTS, bacteria were diluted 50x in prewarmed medium. Fifteen nL of assay compounds (10 μM), DMSO (0.25%), or the reference compound polymyxin B nonapeptide (PMBN) at 25 μM were added to 1536 well plates. Next, 6 μL culture aliquots were added to assay plates containing compounds. Plates were briefly centrifuged for 1 min at 150 x g. Plates were incubated at 37 °C with high humidity and fluorescence (Ex./Em. λ: 485/528 nm) was measured at T = 0 and T = 150 min using a ClarioStar plate reader (BMG Labtech). For data analysis, T = 0 values were subtracted from T = 150 values to calculate Z-score and % effect compared to the reference compound.
Dose–response curves of the 340 initial active compounds were determined following the preparation of serial dilutions (20 nM–20 μM; 7 points, √10). The % effect compared to the reference compound PMBN was calculated and plotted for each compound dilution. The resulting plots were used to calculate pEC50 (-log(EC50), with EC50 being determined as the concentration at which a 50% effect is observed).

[2] = tested on: Rcs stress response in E. coli TOP10F’; assay: Rcs stress kinetics reporter assay; type: cell-based
Protocol: Stress was measured in real-time during 10 h following compound treatment by normalizing the fluorescence intensity for growth as indicated by the optical density at 600 nm (OD600) of the culture.
3 Bacterial stress responses of different compound classes as shown in panel (A). (B) Rcs, (C) σE, (D) Cpx, and (E) heat shock. Graphs show fold change in fluorescence normalized for OD600 at EC80 compound concentrations over the course of 10h. Fold change values were determined by comparing OD600‑normalized fluorescence of compound-treated samples to DMSO treated samples. PMBN is used as a CE stress-inducing control at 25 μg/mL, which is the concentration used as a control during the screening campaign. Chloramphenicol at 1 μg/mL is used as a non-stress-inducing antibiotic control. Error bars indicate standard deviation of the average of triplicate samples from at least two independent experiments. (F) Overview of the different stress responses based on the compound class.
(§2) For lower throughput analysis under laboratory conditions, cultures grown to OD600 of 0.3–0.4 were diluted to a final concnetration of 0.05 OD600 units/mL in black, clear-bottom 96-well plates (Greiner Bio-One B.V.). Plates were incubated in a Biotek HTX or H1 plate reader (Agilent Technologies) at 37 °C with continuous shaking. Kinetic studies were performed by measuring OD600 and fluorescence (Ex./Em. Λ: 485/528 nm) every 20 min for 10h. For end point measurements, fluorescence was measured at T = 0 and once more at T = 150 min.

[3] = tested on: SOS stress response in E. coli MC4100; assay: SOS stress reporter assay (PlexA-mNG); type: cell-based; conditions: EC80 compound concentrations (Fig. 5A); Fig. S4
Excerpt: To examine the potential link between DNA gyrase inhibition, SOS stress, and CE stress, we designed a fluorescent SOS reporter plasmid, similar to the reporter plasmids used to study CE stresses.
5 (A) SOS stress induced by different compounds at EC80 concentrations in E. coli MC4100. (B) Rcs stress of different compounds at EC80 concentrations in E. coli MC4100. (C) Rcs stress of the nonquinolone gyrase inhibitor LEI-800 in TOP10F’. (D) Rcs stress induced by mitomycin C in E. coli TOP10F’ and E. coli MC4100. Graphs show fold change in fluorescence adjusted for bacterial growth (OD600). Error bars indicate standard deviation of triplicates. Data are representative of two independent experiments with similar results.

[4] = tested on: Rcs stress response in E. coli MC4100 (WT, FQR, GEPR); assay: Rcs stress reporter assay in MC4100 wildtype and resistant mutants; type: cell-based; conditions: EC80 concentrations
Excerpt: Serial passaging of E. coli MC4100 in the presence of increasing concentrations of lomefloxacin or gepotidacin yielded resistant variants of E. coli MC4100. We used MC4100 to raise resistance, because unlike the screening strain TOP10F’, this strain has a functional SOS stress response, which has been implicated in developing resistance against quinolones. Compounds also elicited a robust Rcs stress response in E. coli MC4100, allowing for this strain to be used for stress assays.
4 Rcs stress induced by EC80 concentrations of (A) lomefloxacin, (B) gepotidacin, (C) A2, and (D) B1 in wildtype (WT), fluoroquinolone resistant (FQR) or gepotidacin resistant (GEPR) bacteria. Graphs show the fold change in fluorescence adjusted for bacterial growth as determined by OD600. Error bars indicate the standard deviation of triplicate samples. Data are representative of three independent experiments with similar results. […]
as §2

| Structure (SMILES) | MIC (E. coli 25922) | MIC (P. aeruginosa 27853) | MIC (S. aureus USA 300) | MIC (E. coli BW25113) | MIC (A. baumanni 9955) | MIC (K. pneumoniae 13883) | MIC (E. coli TOP10F’) | EC50 (E. coli TOP10F') | IC80 (E. coli TOP10F') | EC50 (E. coli MC4100) | IC80 (E. coli MC4100) | Emax [1] | EC50 [1] | induction of stress response systems (Rcs, σE, Cpx, heat shock) ([2]; chloramphenicol 1 μg/mL, negative control) | Rcs stress induction in SOS-deficient TOP10F’ ([2]; fold change fluorescence/OD600) | SOS stress induction in MC4100 [3] | Rcs stress induction in MC4100 wildtype [4] |
| --- | --- | --- | --- | --- | --- | --- | --- | --- | --- | --- | --- | --- | --- | --- | --- | --- | --- |
| Cc1cc(-c2c(F)cc3c(=O)c(C(=O)O)cn(CCF)c3c2F)cc(C)n1 [A1] | 0.5 µg/mL (≈ 1.33 µM) | 16 µg/mL (≈ 42.5 µM) | 1 µg/mL (≈ 2.66 µM) | 0.25 µg/mL (≈ 0.664 µM) | 1 µg/mL (≈ 2.66 µM) | 1 µg/mL (≈ 2.66 µM) | < 0.03 µg/mL | 0.016 µg/mL (≈ 0.0425 µM) | 0.063 µg/mL (≈ 0.167 µM) | 0.5 µg/mL (≈ 1.33 µM) | 2 µg/mL (≈ 5.31 µM) | 26.1% | 955 nM |  |  |  |  |
| CCc1cc(-c2c(F)cc3c(=O)c(C(=O)O)cn4c3c2OC[C@@H]4C)cc(C)n1 [A3] | 0.125 µg/mL (≈ 0.327 µM) | 8 µg/mL (≈ 20.9 µM) | 0.5 µg/mL (≈ 1.31 µM) | 0.125 µg/mL (≈ 0.327 µM) | 0.5 µg/mL (≈ 1.31 µM) | 1 µg/mL (≈ 2.62 µM) | < 0.03 µg/mL | 0.0078 µg/mL (≈ 0.0204 µM) | 0.031 µg/mL (≈ 0.0811 µM) | 0.25 µg/mL (≈ 0.654 µM) | 1 µg/mL (≈ 2.62 µM) | 18.6% | 191 nM |  |  |  |  |
| CNn1cc(C(=O)O)c(=O)c2cc(F)c(N3CCN(C(C)C)CC3)cc21 [A4] | 0.25 µg/mL (≈ 0.69 µM) | 16 µg/mL (≈ 44.1 µM) | 64 µg/mL (≈ 177 µM) | 0.25 µg/mL (≈ 0.69 µM) | 2 µg/mL (≈ 5.52 µM) | 0.5 µg/mL (≈ 1.38 µM) | 0.125 µg/mL (≈ 0.345 µM) | 2 µg/mL (≈ 5.52 µM) | 4 µg/mL (≈ 11 µM) | 0.25 µg/mL (≈ 0.69 µM) | 1 µg/mL (≈ 2.76 µM) | 20.8% | 214 nM |  |  |  |  |
| COC1CN(CCn2c(=O)ccc3ncc(F)cc32)CCC1NCc1cc(F)c2c(c1)NC(=O)CO2 (stereo not drawn) [B2] | 2 µg/mL (≈ 4 µM) | 8 µg/mL (≈ 16 µM) | 0.25 µg/mL (≈ 0.5 µM) | 1 µg/mL (≈ 2 µM) | 1 µg/mL (≈ 2 µM) | 4 µg/mL (≈ 8.01 µM) | 0.06 µg/mL (≈ 0.12 µM) | < 0.063 µg/mL | 2 µg/mL (≈ 4 µM) | 2 µg/mL (≈ 4 µM) | 16 µg/mL (≈ 32 µM) | 53.2% | 631 nM |  |  |  |  |
| Cc1ncc(CNC2CCN(CCn3c(=O)ccc4ncc(OCc5ccnn5C)cc43)CC2)cc1Cl [B3] | 16 µg/mL (≈ 30.6 µM) | > 64 µg/mL | 0.125 µg/mL (≈ 0.239 µM) | 16 µg/mL (≈ 30.6 µM) | 8 µg/mL (≈ 15.3 µM) | 64 µg/mL (≈ 123 µM) | 2 µg/mL (≈ 3.83 µM) | 0.016 µg/mL (≈ 0.0306 µM) | 1 µg/mL (≈ 1.92 µM) | 2 µg/mL (≈ 3.83 µM) | > 16 µg/mL | 37.9% | 5620 nM |  |  |  |  |
| O=C(N[C@H](CO)[C@H](O)c1ccc([N+](=O)[O-])cc1)C(Cl)Cl [Chloramphenicol] |  |  |  |  |  |  |  |  |  |  |  |  |  | did not induce any of the stress response systems tested |  |  |  |
| O=S(=O)(NC[C@@H]1CC[C@H](c2ccc(-c3cccnc3)cc2)N1)c1cccc2cnccc12 [LEI-800, reference compound] |  |  |  |  |  |  |  | 1 µg/mL (≈ 2.25 µM) | 8 µg/mL (≈ 18 µM) | 2 µg/mL (≈ 4.5 µM) | 8 µg/mL (≈ 18 µM) |  |  |  | induced high levels of Rcs stress similar to CluB compounds | did not induce strong fluorescence | Neither compound induced Rcs stress |
| CN(C)c1ccc(-c2nc(Cl)nc3cccnc23)cc1 [S2] |  |  |  |  |  |  |  |  |  |  |  | 87.9% | 7760 nM |  |  |  |  |

Reference: PMC12442099 (ACS Infectious Diseases, 2025)
